# Measurements: US11459330B2, “Substituted bicyclic heterocyclic compounds as PRMT5 inhibitors” (LUPIN LIMITED, priority 2017, dated 2022)
# Assays:
# [1] = target: PRMT5:MEP50 (Homo sapiens, UniProt O14744); experiment: PRMT5 biochemical HTRF assay (Biochemical Assay Protocol 1 / 2); settings: biotinylated H4R3 substrate, 1 μM SAM, protocol 1 or 2 not given, activity range 300 pM to 950 pM, read-out: IC50 (PRMT5 inhibition), activity range
# Method: Biochemical Assay Protocol 1
# (§1) Inhibitory effect of compounds on PRMT5 was assessed using HTRF detection technology in biochemical assay. Biotinylated H4R3 (residues 1-21) was used as a substrate. Compounds were pre-incubated with 15-25 ng PRMT5:MEP50 per well of a 384-well plate for 30 min at room temperature in the assay buffer containing 20 mM Bicine, pH 7.6, 25 mM NaCl, 2 mM DTT, 0.01% Chicken albumin and 0.01% Tween-20. Reaction was initiated by adding 1 μM of SAM and 50 nM biotinylated H4R3. Total assay volume was 15 μL. Reaction was continued for 120 min at room temperature. Then detection solution containing Streptavidin-Eu cryptate, anti-rabbit IgG-XL-665, Histone H4R3 Dimethyl Symmetric (H4R3me2s) Polyclonal Antibody, all prepared in HTRF detection buffer was added and further incubated for 30 min at room temperature. HTRF signal was recorded in PHERAStar microplate reader. Ratio of signal obtained at 665 nm and 620 nm was used to compute the percent inhibition of compound as follows % Inhibition=100−((Test Ratio−Negative control Ratio)/(Positive control Ratio−Negative control Ratio)*100) where Positive control=PRMT5+SAM+H4R3 Negative control=PRMT5+H4R3 Biochemical Assay Protocol 2
# as §1, with “2.5” for “15-25”, “4 h” for “120 min”, “control=PRMT5+H4R3” for “control=PRMT5+H4R3 Biochemical Assay Protocol 2”
# [2] = test system: PANC-1 cells; experiment: Anti-cancer assay (Panc-1), cell viability CellTiterGlo; type: cell-based; settings: Homo sapiens, PANC-1, 168 h, 7 days, activity range, lower bound in pM, upper bound in nM
# Method: Anticancer Activity Assay
# Z-138 cells were seeded at a density of 2000-3000 cells per well in culture media (IMDM+10% FBS). PANC-1 (ATCC, CRL-1469™) and MIA PaCa-2 (ATCC, CRL-1420™) cells were seeded at a density of 200-300 cells per well in culture media (DMEM+10% FBS). Cells were seeded in opaque, flat bottomed tissue culture grade 96-well plates and Z-138 cells (suspension) were seeded and treated on the same day with various concentrations of test compounds. PANC-1 and MIA PaCa-2 cells, being adherent, were kept for overnight settlement at standard cell culture conditions (37° C., 5% CO2). On the following day, cells were treated with various concentrations of test compounds. Cells were treated with test compounds for a period of 96 h, 7 days and 10 days, for Z-138 cells, PANC-1 cells and MIA PaCa-2 cells, respectively. Cell viability was assessed using CellTiterGlo™ (Promega, USA) as per manufacturer's instructions. Relative Light Units (RLU) were read in Synergy™ 2 reader (Biotek, USA). The assay measures cellular ATP as an indicator of cell viability. RLU is proportional to the number of viable cells in the respective well.
# % inhibition of cell viability was calculated relative to the vehicle control samples containing media with 0.1% DMSO alone as per the formula below. (Avg. of Untreated Control−Avg. of Test)×100 Avg. of Untreated Control
# The IC50 values of individual compounds were calculated with Non Linear Regression Analysis using Graph Pad Prism (Graph Pad software, Inc, USA).
# Anti-Cancer Assay (Panc-1)
# [3] = test system: Z-138 xenograft; experiment: In vivo efficacy, Z-138 xenograft mouse model; set-up: species or system female NOD.CB17-Prkdc<scid>/J mice; settings: mice, oral twice a day; for % of tumor growth inhibition: 1 mg/kg dose, after 38 days
# Method: In Vivo Efficacy Experiments Tumor xenograft for mantle cell lymphoma was established by injection of cells into the right flank of female NOD.CB17-Prkdc/J mice with an age between 7-11 weeks purchased from The Jackson Laboratory, USA. All animal study proposals were reviewed and approved by the Institutional Animal Ethics Committee (IAEC) prior to initiation of experimentation. Z-138 Xenograft For Z-138 xenograft mouse model, Z-138 cells (ATCC® CRL-3001™) were grown in IMDM medium supplemented with 10% FBS. Cells were incubated under standard conditions at 37° C. and 5% CO2. For generating tumors, Z-138 cells in IMDM medium were mixed with Matrigel (Corning® Matrigel® Basement Membrane Matrix) in a ratio of 1:1. 10×10^6 cells) in a volume of 200 μL were injected subcutaneously in each mouse to establish tumors. Mice were randomized into treatment groups of 8-10 mice, once tumors reached an average volume between 100 to 120 mm^3. Treatment was initiated on day of randomization and continued until end of the study. The Vehicle and test compound treatment groups were administered respective treatments orally, using gavage tubing, at an application volume of 10 mL/kg per mouse twice a day. Mice were housed in individually ventilated cages (IVC) at room temperature of 22+3° C., humidity 50+20% and 12/12 h light/dark cycle. All the experimental activities were carried-out inside the biosafety cabinets to ensure sterility.
# Tumor size was measured with Digimatic Vernier caliper (Mitutoyo, Japan) when the tumors became palpable. Tumor volume (T. V.) is calculated by using the formula: Tumor volume (mm3)=(L×W2)/2 Where, L: Length of tumor, W: Width of tumor in millimeter Percent tumor growth inhibition (% TGI) is calculated using the formula: % TGI=[1−(Tf−Ti)/(Cf−Ci)]×100 Where, Tf and Ti, are the final and initial tumor volumes (test compound), and Cf and Ci are the final and initial mean tumor volumes (vehicle group), respectively. Percent tumor regression is calculated as: % TR:(Ti−Tf)/(Ti)×100 Where, Tf and Ti, are the final and initial tumor volumes, respectively.
# Sequence of PRMT5:MEP50 (O14744 whole entry): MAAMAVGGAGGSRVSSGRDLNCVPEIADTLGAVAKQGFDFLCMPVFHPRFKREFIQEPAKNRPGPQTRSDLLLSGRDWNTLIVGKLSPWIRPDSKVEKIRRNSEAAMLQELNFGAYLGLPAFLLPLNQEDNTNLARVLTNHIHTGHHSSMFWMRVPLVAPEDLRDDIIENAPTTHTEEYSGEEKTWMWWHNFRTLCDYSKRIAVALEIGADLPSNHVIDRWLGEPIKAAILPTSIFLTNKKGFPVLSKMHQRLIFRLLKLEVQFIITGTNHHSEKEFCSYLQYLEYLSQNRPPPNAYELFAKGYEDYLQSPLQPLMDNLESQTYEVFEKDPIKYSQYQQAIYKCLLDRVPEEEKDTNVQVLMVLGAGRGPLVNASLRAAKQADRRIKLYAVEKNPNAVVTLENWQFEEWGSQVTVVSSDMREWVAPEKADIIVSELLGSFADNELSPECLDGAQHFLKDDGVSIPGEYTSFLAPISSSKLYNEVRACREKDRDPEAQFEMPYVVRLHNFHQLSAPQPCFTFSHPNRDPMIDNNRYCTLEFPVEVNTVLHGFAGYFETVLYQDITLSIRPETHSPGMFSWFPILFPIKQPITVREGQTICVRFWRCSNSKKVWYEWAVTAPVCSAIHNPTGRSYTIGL
# Sequence of PRMT5:MEP50 (Q9BQA1 whole entry partner): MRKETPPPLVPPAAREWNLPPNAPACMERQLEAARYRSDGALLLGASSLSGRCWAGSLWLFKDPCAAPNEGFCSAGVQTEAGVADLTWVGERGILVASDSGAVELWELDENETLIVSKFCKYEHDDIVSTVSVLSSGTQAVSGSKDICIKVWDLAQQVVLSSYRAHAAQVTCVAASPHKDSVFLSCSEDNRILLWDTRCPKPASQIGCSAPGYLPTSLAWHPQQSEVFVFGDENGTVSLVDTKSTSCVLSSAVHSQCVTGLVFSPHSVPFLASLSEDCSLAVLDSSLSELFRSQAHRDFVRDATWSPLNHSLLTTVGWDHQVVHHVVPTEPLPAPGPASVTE
Structure (SMILES),IC50 [1] [nM],IC50 [2] [pM],% of tumor growth inhibition [3] [%],tumor growth inhibition ([3]; 5 mg/kg dose) [%],tumor regression ([3]; 5 mg/kg dose) [%]
"Cc1ncnc2c1ccn2[C@@H]1C=C(CCc2cc(F)c3cc(Cl)c(N)nc3c2)[C@@H](O)[C@H]1O [Compound-13, (1S,2R,5R)-3-(2-(2-amino-3-chloro-5-fluoroquinolin-7-yl)ethyl)-5-(4-methyl-7H-pyrrolo[2,3-d]pyrimidin-7-yl)cyclopent-3-ene-1,2-diol]",0.3 to 0.95,300 to 20000,100,–,–
"Nc1nc2cc(CC[C@@]34C[C@@H]3[C@@H](n3ccc5c(N)ncnc53)[C@H](O)[C@@H]4O)cc(F)c2cc1Cl [Compound-48, (1R,2R,3S,4R,5S)-1-(2-(2-Amino-3-chloro-5-fluoroquinolin-7-yl)ethyl)-4-(4-amino-7H-pyrrolo[2,3-d]pyrimidin-7-yl)bicyclo[3.1.0]hexane-2,3-diol]",0.3 to 0.95,300 to 20000,–,100,63
"CC(Cc1cc(F)c2cc(Cl)c(N)nc2c1)C1=C[C@@H](n2ccc3c(N)ncnc32)[C@H](O)[C@@H]1O (single isomer, unassigned) [Compound-33b]",0.3 to 0.95,300 to 20000,100,–,–
"Nc1nc2cc(CCC3=C[C@@H](n4ccc5c(N)ncnc54)[C@H](O)[C@@H]3O)cc(F)c2cc1Cl [Compound-24, (1S,2R,5R)-3-(2-(2-amino-3-chloro-5-fluoroquinolin-7-yl)ethyl)-5-(4-amino-7H-pyrrolo[2,3-d]pyrimidin-7-yl)cyclopent-3-ene-1,2-diol]",0.3 to 0.95,300 to 20000,100,–,–
